As usually defined, the TGI is the concentration at which net growth stops.

Consider ten compounds from PubChem BioAssay (NCI).

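Compound exposure: 48 hours, 5 concentrations, 96-well plates. TGI marks complete inhibition of growth.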 Where only a bound is given, the exact number is not on record here.

Among the test systems are SF-268 CNS; HCT-116 colon; NCI-H460 lung; OVCAR-5 ovarian; MDA-MB-435; MDA-N; KM12 colon; IGROV1 ovarian; CAKI-1 renal; UO-31 renal; MDA-MB-231 breast; UACC-62 melanoma; MALME-3M melanoma; OVCAR-4 ovarian; RXF 393 renal.
Experiment in all cases: DTP human tumour cell line panel, 48 h

Regarding `CO/N=C(/C)c1cccc(Nc2nc3ccccc3c3[nH]c4ccccc4c23)c1`, the TGI came to 25.7 µM in the experiment with SF-268 CNS; 14 µM in the experiment on HCT-116 colon; 11.3 µM with NCI-H460 lung; 22.3 µM with OVCAR-5 ovarian; 20.6 µM in the experiment with MDA-MB-435; 20.4 µM with MDA-N. In addition, the TGI with KM12 colon worked out at 14.2 µM; with IGROV1 ovarian, 30.6 µM; in the experiment with CAKI-1 renal it was 24.2 µM; in the experiment with UO-31 renal, 22.1 µM; with MDA-MB-231 breast, 25.5 µM; in the experiment on UACC-62 melanoma, 19.3 µM.

For the compound `COC(=O)C1Cc2cc3c(cc2C1=O)CCCC3` (stereo unspecified), the TGI in the experiment on SF-268 CNS, with HCT-116 colon, in the experiment on NCI-H460 lung, in the experiment with OVCAR-5 ovarian, in the experiment on MDA-MB-435 and with MALME-3M melanoma was more than 100 µM throughout. In addition, the TGI in the experiment with MDA-N, in the experiment with KM12 colon, in the experiment on IGROV1 ovarian, in the experiment with CAKI-1 renal, in the experiment with OVCAR-4 ovarian and in the experiment with UO-31 renal was more than 100 µM each time. The TGI in the experiment on MDA-MB-231 breast and in the experiment with UACC-62 melanoma was more than 100 µM each time.

In the case of `Cc1cnc2sn(-c3ccc([N+](=O)[O-])cc3)c(=O)c2c1`, the TGI in the experiment on SF-268 CNS, in the experiment on HCT-116 colon, in the experiment on NCI-H460 lung, in the experiment on OVCAR-5 ovarian, in the experiment with MDA-MB-435 and in the experiment on MALME-3M melanoma was more than 100 µM throughout. The TGI in the experiment on MDA-N, with KM12 colon, with IGROV1 ovarian, in the experiment on OVCAR-4 ovarian, with UO-31 renal and in the experiment with MDA-MB-231 breast was more than 100 µM throughout. Further, the TGI in the experiment with UACC-62 melanoma was more than 100 µM.

Take `CN(C)c1ccc(C=NCC2CCCN3CCCCC23)cc1` (stereo unspecified): the TGI in the experiment on SF-268 CNS, with HCT-116 colon, with RXF 393 renal, with NCI-H460 lung, in the experiment on OVCAR-5 ovarian and with MALME-3M melanoma was more than 100 µM in each case. Further, the TGI in the experiment on MDA-N, in the experiment with KM12 colon, in the experiment with IGROV1 ovarian, in the experiment on CAKI-1 renal, in the experiment with UO-31 renal and with MDA-MB-231 breast was more than 100 µM throughout. The TGI with UACC-62 melanoma is more than 100 µM.

With `c1cc2c(s1)-c1sccc1C21OCCO1`, the TGI with SF-268 CNS, in the experiment with HCT-116 colon, in the experiment with NCI-H460 lung, in the experiment on OVCAR-5 ovarian, in the experiment with MDA-MB-435 and in the experiment on MALME-3M melanoma was more than 100 µM throughout. Also, the TGI in the experiment with MDA-N, with KM12 colon, with CAKI-1 renal, in the experiment with OVCAR-4 ovarian, in the experiment on UO-31 renal and in the experiment with MDA-MB-231 breast was more than 100 µM throughout. Also, the TGI with UACC-62 melanoma was more than 100 µM.

Consider `COC(=O)CCC1=C(CC(=O)OC)C(C)(OC)N=C1NC(=O)OCc1ccccc1` (stereo unspecified), for which the TGI in the experiment on SF-268 CNS, in the experiment on HCT-116 colon, in the experiment on RXF 393 renal, in the experiment on NCI-H460 lung, in the experiment on OVCAR-5 ovarian and in the experiment on MDA-MB-435 was more than 100 µM each time. In addition, the TGI in the experiment with MALME-3M melanoma, in the experiment with KM12 colon, in the experiment on IGROV1 ovarian, in the experiment on CAKI-1 renal, with OVCAR-4 ovarian and in the experiment with UO-31 renal was more than 100 µM in each case. Besides, the TGI in the experiment with MDA-MB-231 breast and in the experiment on UACC-62 melanoma was more than 100 µM throughout.

In the case of `COc1ccc2nc(-c3ccccc3)cc(OCC(=O)O)c2c1`, the TGI in the experiment on SF-268 CNS, in the experiment with HCT-116 colon, with NCI-H460 lung, with OVCAR-5 ovarian, in the experiment on MDA-MB-435 and in the experiment on MALME-3M melanoma was more than 100 µM each time. For the same compound, the TGI in the experiment on MDA-N is more than 100 µM; with KM12 colon, more than 100 µM; with IGROV1 ovarian, more than 100 µM; in the experiment on CAKI-1 renal, more than 100 µM; with UO-31 renal, 51.3 µM; in the experiment with MDA-MB-231 breast, more than 100 µM. The TGI in the experiment on UACC-62 melanoma was more than 100 µM.

For `c1ccc2c(c1)c1c(n2CCOCCN2CCCC2)CCCC1`, the TGI was more than 100 µM in the experiment with SF-268 CNS; 32.5 µM in the experiment on HCT-116 colon; 30.5 µM with NCI-H460 lung; 35.3 µM in the experiment with OVCAR-5 ovarian; 33.8 µM in the experiment on MDA-MB-435; 31.3 µM in the experiment on MALME-3M melanoma. The TGI in the experiment on MDA-N is 35.8 µM; in the experiment on IGROV1 ovarian, 56.4 µM; in the experiment on CAKI-1 renal, 96.9 µM; in the experiment on OVCAR-4 ovarian it was 73.8 µM; in the experiment with UO-31 renal, 43.2 µM; in the experiment on MDA-MB-231 breast it was 31 µM. This compound showed a TGI in the experiment with UACC-62 melanoma of 33.7 µM.

`CC(=O)OC12C3C4C1C1C2C3C41OC(C)=O` (stereo unspecified): the TGI in the experiment with SF-268 CNS, in the experiment on HCT-116 colon, in the experiment on RXF 393 renal, in the experiment with NCI-H460 lung, in the experiment on OVCAR-5 ovarian and in the experiment with MDA-MB-435 was more than 100 µM each time. Also, the TGI in the experiment on KM12 colon, in the experiment with IGROV1 ovarian, in the experiment with CAKI-1 renal, in the experiment on OVCAR-4 ovarian, in the experiment with UO-31 renal and in the experiment on MDA-MB-231 breast was more than 100 µM in each case. The same compound yielded a TGI in the experiment on UACC-62 melanoma of more than 100 µM.

For `CC1=NC2=Nc3nc(C)cc[n+]3CN2C=C1`, the TGI with SF-268 CNS, in the experiment with HCT-116 colon, with RXF 393 renal, in the experiment with NCI-H460 lung, with OVCAR-5 ovarian and in the experiment with MDA-MB-435 was more than 100 µM each time. In addition, the total growth inhibition concentration (TGI) in the experiment on MALME-3M melanoma, with IGROV1 ovarian, with CAKI-1 renal, in the experiment on OVCAR-4 ovarian, with UO-31 renal and in the experiment on MDA-MB-231 breast was more than 100 µM each time. Further, the TGI in the experiment with UACC-62 melanoma was more than 100 µM.
